# Data published in PubChem BioAssay (NCI).
#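 Five compound concentrations were applied to cells in 96-well plates for 48 hours; endpoints were derived by simple linear interpolation of the resulting dose-response curve. At the GI50, growth is halved. The concentration for full growth arrest is given as TGI.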
# Assays:
# Experiment in all cases: growth of human tumour cells (NCI), 48 h
# [1] = system: SR leukemia
# [2] = system: UO-31 renal
# [3] = system: COLO 205 colon
# [4] = system: SW-620 colon
# [5] = system: KM12 colon
# [6] = system: SK-MEL-5 melanoma
# [7] = system: T-47D breast
# [8] = system: SF-295 CNS
# [9] = system: UACC-257 melanoma
# [10] = system: SNB-75 CNS
Compound,GI50 [1] [µM],TGI [1] [µM],GI50 [2] [µM],TGI [2] [µM],GI50 [3] [µM],TGI [3] [µM],GI50 [4] [µM],TGI [4] [µM],GI50 [5] [µM],TGI [5] [µM],GI50 [6] [µM],TGI [6] [µM],GI50 [7] [µM],TGI [7] [µM],GI50 [8] [µM],TGI [8] [µM],GI50 [9] [µM],TGI [9] [µM],GI50 [10] [µM],TGI [10] [µM]
C[C@@H](CO)NC(=O)c1cc(-c2ccc(Cl)cc2)nn(-c2cnn(C)c2)c1=O,18.2,> 100,7.79,57.4,24.7,90.6,22.9,> 100,59.9,> 100,12.7,26,25.9,> 100,16.4,50.7,30.6,> 100,16.7,78.1
NC(CSSCC(N)C(=O)O)C(=O)O (stereo unspecified),,,> 100,> 100,> 100,> 100,> 100,> 100,> 100,> 100,> 100,> 100,> 100,> 100,> 100,> 100,> 100,> 100,> 100,> 100
CC1(C)O[C@@H]2C[C@H]3[C@@H]4C[C@H](F)C5=CC(=O)C=C[C@]5(C)[C@@]4(F)[C@@H](O)C[C@]3(C)[C@]2(C(=O)CO)O1,,> 100,,> 100,,> 100,,> 100,,> 100,,> 100,,> 100,,> 100,,> 100,,> 100
C/C(=N\NC(=S)N1CCCCCC1)c1cccc2cccnc12,,14.5,,> 44.2,,12.3,,> 100,,> 87.4,,,,70.9,,> 21,,> 31.1,,> 91.6
C=Cn1c([N+](=O)[O-])cnc1/C=C/c1ccc(C(=O)OCCN2CCOCC2)cc1,,,,,,> 100,,> 100,,> 100,,> 100,,> 100,,> 100,,> 100,,> 100
COc1ccc(-c2c3c(nc4n[nH]c(-c5ccc(Cl)cc5)c24)-c2ccccc2C(=O)C3=O)cc1,2.57,> 100,1.17,2.9,1.57,2.99,1.6,3.03,1.62,3.16,1.51,2.84,1.03,9.47,1.9,4.32,1.57,2.95,1.19,2.76
CC1(C)Cc2c(Br)c(Br)c(Br)c(OCC(O)CN3CCN(c4ccccn4)CC3)c2O1 (stereo unspecified),4.38,24.7,11,24,15,34.4,15.2,29.2,7.78,24.5,10.8,23.1,18.3,> 100,6.11,21.4,16.6,39.7,16.3,39
Cc1ccc(C2NC(=O)c3ccccc3N2)c(C)c1 (stereo unspecified),,> 71.8,,> 100,,14.2,,> 100,,> 100,,> 39.5,,> 100,,> 35,,> 100,,6.8
CN(C)c1ccc(/C=N/S(=O)(=O)c2ccc(-n3c(-c4ccccc4)nc4c(Br)cc(Br)cc4c3=O)cc2)cc1,1,14.9,32.6,> 100,44.9,> 100,46.2,> 100,32.3,> 100,15.3,38.3,24.5,88,35.5,> 100,44.6,> 100,24.7,71.3
Cc1nc2cc(Nc3nc(Nc4ccc(F)cc4)nc(N4CCOCC4)n3)ccc2n1Cc1ccccc1,2.4,7.38,3.24,14.6,1.84,3.33,3.97,30.8,3.77,14.2,2.9,11.1,3.88,> 100,3.01,9.03,2.11,4.42,2.73,20.4
CCSC[C@@H]1C[C@](O)(c2ccc(F)cc2)[C@@H](c2ccc(F)cc2)O1,12.9,30,17,32.9,16.5,31.6,16.7,31.4,19.4,41.3,14.8,28,15,35.8,15.3,31.6,16.1,32.7,16.3,31.1
O=C(/C=C(\C(=O)c1cccs1)c1cccs1)c1ccc(C(=O)/C=C(\C(=O)c2cccs2)c2cccs2)cc1,,> 100,,> 100,,> 100,,> 100,,> 100,,> 100,,> 100,,> 100,,> 100,,> 100
CC1SC2(CCCCC2)N(NC(=O)c2[nH]c3ccc(Br)cc3c2-c2ccccc2)C1=O (stereo unspecified),,,21.6,> 100,> 100,> 100,> 100,> 100,16.1,> 100,> 100,> 100,20.5,> 100,10.7,46.7,23.6,> 100,22.6,90
CC(=O)O[C@H]1CC[C@@]2(C)C(=C/C(=N/OCCN3CCCC3)[C@H]3[C@@H]4CC[C@H](OC(C)=O)[C@@]4(C)CC[C@@H]32)C1,10.4,44.1,20.8,53.3,18.5,34.9,24.1,59.8,40.7,> 100,17.3,31.9,52.1,> 100,26.1,66.1,,,68,> 100
